Data reported in patent US20250296948A1, “SYNTHESIS OF NUCLEOSIDE DERIVATIVES” (Nucana plc, priority 2022, published 2025).

Columns and labels:
Format in all cases: physicochemical
[1] = Solution stability, alpha naphthol (0.60 RRT) in DMA:Saline (80:20 v/v); design: 0.60 RRT (Alpha Naphthol): unit not given here; conditions: 400 mg/mL in DMA:Saline (80:20 v/v)
Experimental: Stability data is also provided in Table 4, which compares the levels of alpha naphthol (0.60 RRT) present in solutions of 400 mg/mL NUC-3373, prepared by Example 3 or 4, above, in DMA:Saline (80:20 v/v) at different temperatures measured over set periods of time. The tested solutions are suitable for infusion and injection and the temperatures and times measured are representative of the environments that solutions suitable for infusion and injection would typically be stored in.
In Table 4 the two values provided for each temperature at each time period, separated by “/”, represent different preparations (samples) of that synthesis.

[2] = 6 month dry powder stability, HPLC assay
Source text: (§1) NUC-3373 prepared according to Example 3 and Comparative Example 4 was packed into a transparent LDPE bag which was then filled with nitrogen and tied with a strip seal. This bag was then placed into another transparent LDPE bag which was also filled with nitrogen. A silica gel packet was placed between the two bags before the outermost bag was tied with a strip seal. These bags were then placed in a triple laminated sun light barrier bag which was sealed with a heat sealer. The bags were kept in a HDPE container.
(§2) NUC-3373 was initially assayed by HPLC after manufacture (0 months) then after 1 and 2 and/or 3 and 6 months of storage at 2-8° C., 25° C. or 40° C.

[3] = 6 month dry powder stability, Alpha Naphthol content by HPLC
Source text: as §1, §2
The Alpha Naphthol content of the same batches was also determined by HPLC. The levels of the alpha naphthol impurity is a key indicator of stability of the tested material.

C[C@H](NP(=O)(OC[C@H]1O[C@@H](n2cc(F)c(=O)[nH]c2=O)CC1O)Oc1cccc2ccccc12)C(=O)OCc1ccccc1 (stereo partly drawn) [Comparative Example 4, 5-fluoro-2′-deoxyuridine-5′-O-[1-naphthyl (benzoxy-L-alaninyl)] phosphate]
0.60 RRT (Alpha Naphthol) ([1]; After 1 month at 2-8° C., first preparation (before "/")): 0.04/0.04
0.60 RRT (Alpha Naphthol) ([1]; After 1 month at 2-8° C., second preparation (after "/")): 0.04/0.04
0.60 RRT (Alpha Naphthol) ([1]; After 1 month at 25 ± 5° C., first preparation (before "/")): 0.29/0.29
0.60 RRT (Alpha Naphthol) ([1]; After 1 month at 25 ± 5° C., second preparation (after "/")): 0.29/0.29
0.60 RRT (Alpha Naphthol) ([1]; After 3 months at 2-8° C., first preparation (before "/")): 0.06/0.06
0.60 RRT (Alpha Naphthol) ([1]; After 3 months at 2-8° C., second preparation (after "/")): 0.06/0.06
0.60 RRT (Alpha Naphthol) ([1]; After 3 months at 25 ± 5° C., first preparation (before "/")): 0.45
0.60 RRT (Alpha Naphthol) ([1]; After 3 months at 25 ± 5° C., second preparation (after "/")): 0.46
0.60 RRT (Alpha Naphthol) ([1]; After 15 days at 2-8° C., first preparation (before "/")): 0.04/0.04
0.60 RRT (Alpha Naphthol) ([1]; After 15 days at 2-8° C., second preparation (after "/")): 0.04/0.04
0.60 RRT (Alpha Naphthol) ([1]; After 15 days at 25 ± 5° C., first preparation (before "/")): 0.19
0.60 RRT (Alpha Naphthol) ([1]; After 15 days at 25 ± 5° C., second preparation (after "/")): 0.20
0.60 RRT (Alpha Naphthol) ([1]; Initial): 0.02
Decrease after 6 months, HPLC assay ([2]; 2-8 ° C.): None
HPLC assay (% w/w on anhydrous and solvent free basis) ([2]; 2-8 ° C., 0 months): 100 % w/w
HPLC assay (% w/w on anhydrous and solvent free basis) ([2]; 2-8 ° C., 3 months): 100 % w/w
HPLC assay (% w/w on anhydrous and solvent free basis) ([2]; 2-8 ° C., 6 months): 100 % w/w
Decrease after 6 months, HPLC assay ([2]; 25 ° C.): 0.1 % w/w
HPLC assay (% w/w on anhydrous and solvent free basis) ([2]; 25 ° C., 0 months): 99.7 % w/w
HPLC assay (% w/w on anhydrous and solvent free basis) ([2]; 25 ° C., 3 months): 99.5 % w/w
HPLC assay (% w/w on anhydrous and solvent free basis) ([2]; 25 ° C., 6 months): 99.6 % w/w
Decrease after 6 months, HPLC assay ([2]; 40 ° C.): 2.0 % w/w
HPLC assay (% w/w on anhydrous and solvent free basis) ([2]; 40 ° C., 0 months): 99.7 % w/w
HPLC assay (% w/w on anhydrous and solvent free basis) ([2]; 40 ° C., 1 month): 99.3 % w/w
HPLC assay (% w/w on anhydrous and solvent free basis) ([2]; 40 ° C., 2 months): 99.0 % w/w
HPLC assay (% w/w on anhydrous and solvent free basis) ([2]; 40 ° C., 3 months): 99.3 % w/w
HPLC assay (% w/w on anhydrous and solvent free basis) ([2]; 40 ° C., 6 months): 97.7 % w/w
Increase after 6 months, Alpha Naphthol by HPLC ([3]; 2-8 ° C.): None
Alpha Naphthol by HPLC (% w/w) ([3]; 2-8 ° C., 0 months): 0.09 % w/w
Alpha Naphthol by HPLC (% w/w) ([3]; 2-8 ° C., 3 months): 0.10 % w/w
Alpha Naphthol by HPLC (% w/w) ([3]; 2-8 ° C., 6 months): 0.09 % w/w
Increase after 6 months, Alpha Naphthol by HPLC ([3]; 25 ° C.): 0.1 % w/w
Alpha Naphthol by HPLC (% w/w) ([3]; 25 ° C., 0 months): 0.09 % w/w
Alpha Naphthol by HPLC (% w/w) ([3]; 25 ° C., 3 months): 0.10 % w/w
Alpha Naphthol by HPLC (% w/w) ([3]; 25 ° C., 6 months): 0.10 % w/w
Increase after 6 months, Alpha Naphthol by HPLC ([3]; 40 ° C.): 1.11 % w/w
Alpha Naphthol by HPLC (% w/w) ([3]; 40 ° C., 0 months): 0.09 % w/w
Alpha Naphthol by HPLC (% w/w) ([3]; 40 ° C., 1 month): 0.18 % w/w
Alpha Naphthol by HPLC (% w/w) ([3]; 40 ° C., 2 months): 0.27 % w/w
Alpha Naphthol by HPLC (% w/w) ([3]; 40 ° C., 3 months): 0.18 % w/w
Alpha Naphthol by HPLC (% w/w) ([3]; 40 ° C., 6 months): 1.2 % w/w

C[C@H](NP(=O)(OC[C@H]1O[C@@H](n2cc(F)c(=O)[nH]c2=O)CC1O)Oc1cccc2ccccc12)C(=O)OCc1ccccc1 (stereo partly drawn) [Example 3, Batch 3, 5-fluoro-2′-deoxyuridine-5′-O-[1-naphthyl (benzoxy-L-alaninyl)] phosphate]
Decrease after 6 months, HPLC assay ([2]; 2-8 ° C.): None
HPLC assay (% w/w on anhydrous and solvent free basis) ([2]; 2-8 ° C., 0 months): 100.3 % w/w
HPLC assay (% w/w on anhydrous and solvent free basis) ([2]; 2-8 ° C., 3 months): 101.9 % w/w
HPLC assay (% w/w on anhydrous and solvent free basis) ([2]; 2-8 ° C., 6 months): 100.5 % w/w
Decrease after 6 months, HPLC assay ([2]; 25 ° C.): None
HPLC assay (% w/w on anhydrous and solvent free basis) ([2]; 25 ° C., 0 months): 100.3 % w/w
HPLC assay (% w/w on anhydrous and solvent free basis) ([2]; 25 ° C., 3 months): 101.8 % w/w
HPLC assay (% w/w on anhydrous and solvent free basis) ([2]; 25 ° C., 6 months): 101.0 % w/w
Decrease after 6 months, HPLC assay ([2]; 40 ° C.): None
HPLC assay (% w/w on anhydrous and solvent free basis) ([2]; 40 ° C., 0 months): 100.3 % w/w
HPLC assay (% w/w on anhydrous and solvent free basis) ([2]; 40 ° C., 1 month): 100.6 % w/w
HPLC assay (% w/w on anhydrous and solvent free basis) ([2]; 40 ° C., 2 months): 101.5 % w/w
HPLC assay (% w/w on anhydrous and solvent free basis) ([2]; 40 ° C., 3 months): 102.2 % w/w
HPLC assay (% w/w on anhydrous and solvent free basis) ([2]; 40 ° C., 6 months): 100.8 % w/w
Increase after 6 months, Alpha Naphthol by HPLC ([3]; 2-8 ° C.): None
Alpha Naphthol by HPLC (% w/w) ([3]; 2-8 ° C., 0 months): 0.18 % w/w
Alpha Naphthol by HPLC (% w/w) ([3]; 2-8 ° C., 3 months): 0.18 % w/w
Alpha Naphthol by HPLC (% w/w) ([3]; 2-8 ° C., 6 months): 0.17 % w/w
Increase after 6 months, Alpha Naphthol by HPLC ([3]; 25 ° C.): None
Alpha Naphthol by HPLC (% w/w) ([3]; 25 ° C., 0 months): 0.18 % w/w
Alpha Naphthol by HPLC (% w/w) ([3]; 25 ° C., 3 months): 0.18 % w/w
Alpha Naphthol by HPLC (% w/w) ([3]; 25 ° C., 6 months): 0.17 % w/w
Increase after 6 months, Alpha Naphthol by HPLC ([3]; 40 ° C.): None
Alpha Naphthol by HPLC (% w/w) ([3]; 40 ° C., 0 months): 0.18 % w/w
Alpha Naphthol by HPLC (% w/w) ([3]; 40 ° C., 1 month): 0.17 % w/w
Alpha Naphthol by HPLC (% w/w) ([3]; 40 ° C., 2 months): 0.17 % w/w
Alpha Naphthol by HPLC (% w/w) ([3]; 40 ° C., 3 months): 0.17 % w/w
Alpha Naphthol by HPLC (% w/w) ([3]; 40 ° C., 6 months): 0.15 % w/w
